Reference: ChEMBL document CHEMBL4229532, “A series of camptothecin prodrugs exhibit HDAC inhibition activity” (Bioorg Med Chem, 2018)
Activity calls are given as the source filed them. The calls are words filed in the database; no cut-off is given here.

How the values were obtained:
[1] = target: Histone deacetylase 3 (Homo sapiens, UniProt O15379); experiment: Inhibition of recombinant human HDAC3 expressed in baculovirus infected High5 insect cells using Ac-Lys-Tyr-Lys(epsilon-acetyl)-AMC as substrate after 24 hrs by fluorescence assay
[2] = target: T1, Protein deacetylase HDAC6 (Homo sapiens, UniProt Q9UBN7); experiment: Inhibition of recombinant human HDAC6 expressed in baculovirus infected High5 insect cells using Boc-Lys (epsilon-acetyl)-AMC as substrate after 3 hrs by fluorescence assay
T1 sequence (Q9UBN7 whole entry): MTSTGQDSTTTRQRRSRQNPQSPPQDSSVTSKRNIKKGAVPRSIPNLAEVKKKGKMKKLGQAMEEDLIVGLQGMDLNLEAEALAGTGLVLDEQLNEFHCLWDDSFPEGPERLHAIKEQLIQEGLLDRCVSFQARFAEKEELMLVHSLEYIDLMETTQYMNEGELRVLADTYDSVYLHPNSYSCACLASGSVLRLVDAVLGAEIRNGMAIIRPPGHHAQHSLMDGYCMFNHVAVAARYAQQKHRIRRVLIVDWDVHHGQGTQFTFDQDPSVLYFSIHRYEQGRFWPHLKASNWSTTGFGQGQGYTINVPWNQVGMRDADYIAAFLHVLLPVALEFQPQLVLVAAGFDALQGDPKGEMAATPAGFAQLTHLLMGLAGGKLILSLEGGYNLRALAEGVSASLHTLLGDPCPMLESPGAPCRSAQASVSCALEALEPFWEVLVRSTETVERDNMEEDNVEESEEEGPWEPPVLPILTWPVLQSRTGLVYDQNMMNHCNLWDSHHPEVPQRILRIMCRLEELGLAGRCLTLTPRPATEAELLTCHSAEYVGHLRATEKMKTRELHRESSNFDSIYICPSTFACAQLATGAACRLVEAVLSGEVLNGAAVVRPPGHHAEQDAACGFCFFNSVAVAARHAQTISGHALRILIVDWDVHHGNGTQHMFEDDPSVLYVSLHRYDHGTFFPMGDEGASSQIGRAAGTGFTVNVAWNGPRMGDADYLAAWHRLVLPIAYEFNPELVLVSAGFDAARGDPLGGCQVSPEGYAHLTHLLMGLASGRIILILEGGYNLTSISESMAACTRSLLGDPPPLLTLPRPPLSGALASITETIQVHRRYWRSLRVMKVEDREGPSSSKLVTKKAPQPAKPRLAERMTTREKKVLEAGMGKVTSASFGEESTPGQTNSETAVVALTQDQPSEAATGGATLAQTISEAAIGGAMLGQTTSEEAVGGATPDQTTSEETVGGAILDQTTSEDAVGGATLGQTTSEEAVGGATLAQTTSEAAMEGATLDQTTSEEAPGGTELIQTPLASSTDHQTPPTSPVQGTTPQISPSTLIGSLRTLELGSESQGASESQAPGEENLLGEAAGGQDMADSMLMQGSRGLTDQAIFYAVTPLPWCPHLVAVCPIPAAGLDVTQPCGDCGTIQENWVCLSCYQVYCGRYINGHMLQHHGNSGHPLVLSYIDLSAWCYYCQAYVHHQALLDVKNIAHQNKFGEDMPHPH

[3] = target: Histone deacetylase 1 (Homo sapiens, UniProt Q13547); experiment: Inhibition of recombinant human HDAC1 expressed in baculovirus infected High5 insect cells using Ac-Lys-Tyr-Lys(epsilon-acetyl)-AMC as substrate after 24 hrs by fluorescence assay
[4] = test system: HCT-116; experiment: Antiproliferative activity against human HCT116 cells after 72 hrs by SRB assay; type: functional, cell-based; conditions: HCT-116, 72 h
[5] = target: T2, Protein deacetylase HDAC6 (Homo sapiens) (UniProt Q9UBN7); experiment: Inhibition of HDAC6 in human A549 cells assessed as increase in acetylated tubulin levels at 1 to 10 uM after 24 hrs by Western blot analysis; type: cell-based
T2 sequence (whole entry): T1 sequence (Q9UBN7 whole entry)

[6] = Stability of the compound in mouse plasma at 50 uM by HPLC analysis; type: ADME, cell-free
[7] = target: T2, Protein deacetylase HDAC6 (Homo sapiens); experiment: Inhibition of HDAC6 in human HCT116 cells assessed as increase in acetylated tubulin levels at 1 to 10 uM after 24 hrs by Western blot analysis; type: cell-based
[8] = Stability of the compound in human plasma at 50 uM by HPLC analysis; type: ADME, cell-free
[9] = Stability of the compound in PBS at pH 6 at 50 uM by HPLC analysis; type: physicochemical; conditions: buffer, pH 6, 50 µM
[10] = Stability of the compound in PBS at pH 7.4 at 50 uM by HPLC analysis; type: physicochemical; conditions: buffer, pH 7.4, 50 µM
[11] = test system: A549; experiment: Antiproliferative activity against human A549 cells after 72 hrs by SRB assay; type: functional, cell-based; conditions: A549, 72 h
[12] = target: T2, Protein deacetylase HDAC6 (Homo sapiens); experiment: Inhibition of HDAC6 in human HCT116 cells assessed as increase in acetylated tubulin levels at 0.03 to 3 uM after 24 hrs by Western blot analysis; type: cell-based
[13] = target: T2, Protein deacetylase HDAC6 (Homo sapiens); experiment: Inhibition of HDAC6 in human A549 cells assessed as increase in acetylated tubulin levels at 0.03 to 3 uM after 24 hrs by Western blot analysis; type: cell-based
[14] = target: T2, Protein deacetylase HDAC6 (Homo sapiens); experiment: Inhibition of HDAC6 in human HCT116 cells assessed as increase in acetylated tubulin levels at 0.3 to 30 uM after 24 hrs by Western blot analysis; type: cell-based
[15] = target: T2, Protein deacetylase HDAC6 (Homo sapiens); experiment: Inhibition of HDAC6 in human A549 cells assessed as increase in acetylated tubulin levels at 0.3 to 30 uM after 24 hrs by Western blot analysis; type: cell-based
[16] = Half life in human plasma at 50 uM by HPLC analysis; type: ADME, cell-free
[17] = Half life in PBS at pH 7.4 at 50 uM by HPLC analysis; type: physicochemical
[18] = Half life in mouse plasma at 50 uM by HPLC analysis; type: ADME, cell-free

Chain of Histone deacetylase 1 (Q13547 whole entry): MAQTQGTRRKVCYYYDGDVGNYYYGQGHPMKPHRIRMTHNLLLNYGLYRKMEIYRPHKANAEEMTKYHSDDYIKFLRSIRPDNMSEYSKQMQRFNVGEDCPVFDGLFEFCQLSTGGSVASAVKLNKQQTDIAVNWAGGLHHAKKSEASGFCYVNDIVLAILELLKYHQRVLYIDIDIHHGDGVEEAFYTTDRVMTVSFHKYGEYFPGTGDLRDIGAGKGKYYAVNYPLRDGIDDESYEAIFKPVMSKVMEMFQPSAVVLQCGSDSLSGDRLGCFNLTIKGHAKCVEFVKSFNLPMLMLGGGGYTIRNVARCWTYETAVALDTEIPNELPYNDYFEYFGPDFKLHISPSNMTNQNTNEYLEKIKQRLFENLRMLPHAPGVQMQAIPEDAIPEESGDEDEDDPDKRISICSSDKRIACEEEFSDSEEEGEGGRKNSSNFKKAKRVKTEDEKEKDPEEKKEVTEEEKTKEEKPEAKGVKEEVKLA
Chain of Histone deacetylase 3 (O15379 whole entry): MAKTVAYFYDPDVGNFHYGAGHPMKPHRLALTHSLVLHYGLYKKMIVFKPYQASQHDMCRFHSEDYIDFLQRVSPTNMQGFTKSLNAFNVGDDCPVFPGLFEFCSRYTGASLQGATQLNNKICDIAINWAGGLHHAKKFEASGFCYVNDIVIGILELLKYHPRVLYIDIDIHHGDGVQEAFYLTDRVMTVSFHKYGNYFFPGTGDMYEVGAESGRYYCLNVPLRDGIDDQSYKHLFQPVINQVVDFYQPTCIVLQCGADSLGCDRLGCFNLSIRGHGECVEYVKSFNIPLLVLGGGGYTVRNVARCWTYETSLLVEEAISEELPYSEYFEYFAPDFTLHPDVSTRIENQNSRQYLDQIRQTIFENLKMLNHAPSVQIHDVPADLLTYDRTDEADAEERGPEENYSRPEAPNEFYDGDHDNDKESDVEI

Question: For CCc1c2c(nc3ccc(OC(=O)N4CCN(C(=O)CCCCCCCCCCC(=O)NO)CC4)cc13)-c1cc3c(c(=O)n1C2)COC(=O)[C@]3(O)CC, which IC50 [1] is on record?
Answer: 27300 nM

Question: And the IC50 [2]?
Answer: 3570 nM

Question: What about the IC50 [3] of the same molecule?
Answer: 11000 nM

Question: What does the source list for CCc1c2c(nc3ccc(OC(=O)N4CCN(C(=O)CCCCCCCC(=O)NO)CC4)cc13)-c1cc3c(c(=O)n1C2)COC(=O)[C@]3(O)CC?
Answer: IC50 [1]: 18800 nM; IC50 [2]: 9040 nM; IC50 [3]: 19700 nM

Question: What does the source list for CCc1c2c(nc3ccc(O)cc13)-c1cc3c(c(=O)n1C2)COC(=O)[C@@]3(CC)OC(=O)CCCCCCC(=O)NO?
Answer: IC50 [1]: 100 nM; IC50 [4]: 88 nM; inhibition [5]: inactive; Stability [6]: Unstable; inhibition [7]: inactive; IC50 [2]: 250 nM; Stability [8]: Stable; Stability [9]: Stable; Stability [10]: Stable; IC50 [11]: 612 nM; IC50 [3]: 90 nM

Question: With CCc1c2c(nc3ccc(OC(=O)N4CCN(C(=O)CCCCCCCCC(=O)NO)CC4)cc13)-c1cc3c(c(=O)n1C2)COC(=O)[C@]3(O)CC as the molecule, how does the IC50 [1] read?
Answer: 25400 nM

Question: And the IC50 [2]?
Answer: 7020 nM

Question: What about the IC50 [3] of the same molecule?
Answer: 30100 nM

Question: For CCc1c2c(nc3ccc(O)cc13)-c1cc3c(c(=O)n1C2)COC(=O)[C@@]3(CC)OC(=O)CCCCCCCC(=O)NO, which IC50 [1] is on record?
Answer: 990 nM

Question: And the IC50 [2]?
Answer: 210 nM

Question: And the IC50 [3]?
Answer: 970 nM

Question: With CCc1c2c(nc3ccc(O)cc13)-c1cc3c(c(=O)n1C2)COC(=O)[C@@]3(CC)OC(=O)CCCCCC(=O)NO as the molecule, how does the IC50 [1] read?
Answer: 100 nM

Question: What about the IC50 [4] of the same molecule?
Answer: 46.2 nM

Question: What about the inhibition [5] of the same molecule?
Answer: inactive

Question: What about the inhibition [7] of the same molecule?
Answer: inactive

Question: What about the IC50 [2] of the same molecule?
Answer: 220 nM

Question: And the IC50 [11]?
Answer: 245 nM

Question: What about the IC50 [3] of the same molecule?
Answer: 110 nM

Question: For CCc1c2c(nc3ccc(OC(=O)N4CCN(C(=O)CCCCCC(=O)NO)CC4)cc13)-c1cc3c(c(=O)n1C2)COC(=O)[C@]3(O)CC, which IC50 [1] is on record?
Answer: 12000 nM

Question: What about the IC50 [3] of the same molecule?
Answer: 13600 nM

Question: For CCc1c2c(nc3ccc(O)cc13)-c1cc3c(c(=O)n1C2)COC(=O)[C@]3(O)CC [7-ETHYL-10-HYDROXYCAMPTOTHECIN], which IC50 [4] is on record?
Answer: 0.78 nM

Question: What about the IC50 [11] of the same molecule?
Answer: 1.62 to 7.33 nM

Question: For CCc1c2c(nc3ccc(OC(=O)N4CCN(C(=O)CCCCCCCCCC(=O)NO)CC4)cc13)-c1cc3c(c(=O)n1C2)COC(=O)[C@]3(O)CC, which IC50 [1] is on record?
Answer: 24600 nM

Question: What about the inhibition [12] of the same molecule?
Answer: Active

Question: And the IC50 [4]?
Answer: 3220 nM

Question: What about the inhibition [13] of the same molecule?
Answer: Active

Question: What about the IC50 [2] of the same molecule?
Answer: 4700 nM

Question: What about the IC50 [11] of the same molecule?
Answer: 6730 nM

Question: And the IC50 [3]?
Answer: 17400 nM

Question: With CCc1c2c(nc3ccc(O)cc13)-c1cc3c(c(=O)n1C2)COC(=O)[C@@]3(CC)OC(=O)CCCCCCCCC(=O)NO as the molecule, how does the IC50 [1] read?
Answer: 780 nM

Question: And the IC50 [2]?
Answer: 320 nM

Question: And the IC50 [3]?
Answer: 710 nM

Question: What does the source list for CCc1c2c(nc3ccc(OC(=O)N4CCN(C(=O)CCCCCCC(=O)NO)CC4)cc13)-c1cc3c(c(=O)n1C2)COC(=O)[C@]3(O)CC?
Answer: IC50 [1]: 9320 nM; IC50 [4]: 6240 nM; inhibition [14]: Active; inhibition [15]: Active; Stability [6]: Unstable; IC50 [2]: 12200 nM; Stability [8]: Stable; Stability [9]: Stable; Stability [10]: Stable; IC50 [11]: 7230 nM; IC50 [3]: 5570 nM

Question: Which results are given for CCc1c2c(nc3ccc(O)cc13)-c1cc3c(c(=O)n1C2)COC(=O)[C@@]3(CC)OC(=O)CCCCCCC(=O)O?
Answer: IC50 [1]: 37200 nM; IC50 [4]: 29 nM; inhibition [5]: Active; inhibition [7]: Active; IC50 [2]: 6940 nM; IC50 [11]: 129 nM; IC50 [3]: 27100 nM

Question: With CCc1c2c(nc3ccc(OC(=O)N4CCC(N5CCCCC5)CC4)cc13)-c1cc3c(c(=O)n1C2)COC(=O)[C@]3(O)CC [IRINOTECAN] as the molecule, how does the IC50 [4] read?
Answer: 1630 nM

Question: And the IC50 [11]?
Answer: 1880 nM

Question: Which IC50 [1] does the source give for CCc1c2c(nc3ccc(O)cc13)-c1cc3c(c(=O)n1C2)COC(=O)[C@@]3(CC)OC(=O)CCCCCCCCCCC(=O)NO here?
Answer: 11800 nM

Question: What about the IC50 [2] of the same molecule?
Answer: 1070 nM

Question: And the IC50 [3]?
Answer: 12600 nM

Question: For CCc1c2c(nc3ccc(O)cc13)-c1cc3c(c(=O)n1C2)COC(=O)[C@@]3(CC)OC(=O)CNC(=O)CCCCCCC(=O)O, which IC50 [1] is on record?
Answer: 34900 nM

Question: What about the IC50 [4] of the same molecule?
Answer: 23.2 nM

Question: What about the inhibition [5] of the same molecule?
Answer: Active

Question: What about the inhibition [7] of the same molecule?
Answer: Active

Question: And the IC50 [2]?
Answer: 8660 nM

Question: And the IC50 [11]?
Answer: 111 nM

Question: And the IC50 [3]?
Answer: 27700 nM

Question: For CCc1c2c(nc3ccc(O)cc13)-c1cc3c(c(=O)n1C2)COC(=O)[C@@]3(CC)OC(=O)CNC(=O)CCCCCCC(=O)NO, which IC50 [1] is on record?
Answer: 1600 nM

Question: And the IC50 [4]?
Answer: 30.5 nM

Question: What about the half-life at 50 µM [16] of the same molecule?
Answer: 6 h

Question: What about the inhibition [5] of the same molecule?
Answer: inactive

Question: And the inhibition [7]?
Answer: inactive

Question: What about the half-life at 50 µM [17] of the same molecule?
Answer: 5 h

Question: What about the IC50 [2] of the same molecule?
Answer: 860 nM

Question: What about the half-life at 50 µM [18] of the same molecule?
Answer: 1 h

Question: And the Stability [9]?
Answer: Unstable

Question: What about the IC50 [11] of the same molecule?
Answer: 138 nM

Question: What about the IC50 [3] of the same molecule?
Answer: 1960 nM

Question: With CCc1c2c(nc3ccc(O)cc13)-c1cc3c(c(=O)n1C2)COC(=O)[C@@]3(CC)OC(=O)CCCCCCCCCC(=O)NO as the molecule, how does the IC50 [1] read?
Answer: 5330 nM

Question: What about the IC50 [2] of the same molecule?
Answer: 610 nM

Question: And the IC50 [3]?
Answer: 6180 nM
